Results as given in US20080058703A1, “Drug electrotransport with hydration measurement of hydratable reservoir” (priority 2006, published 2008).

Assay: In vitro skin flux of apomorphine by electrotransport from hydrated TECOGEL matrix (horizontal diffusion cell)
Assay type: in vitro ADME
Conditions: in vitro electrotransport from hydrated TECOGEL matrix across heat separated human epidermis
From the text: The diamond symbols show the average data points at particular time intervals and the vertical lines show the standard deviation. Measurement of impedance during hydration of TECOGEL® is reported in FIG. 8 and described in Example 3 below. The flux of apomorphine free base is plotted as a function of electrotransport time (in hrs). The unit for the flux is μg/cm^2 hr. […] It is noted that the TECOGEL® was used to illustrate that hydration can be done and the level of hydration measured. The exact type of polyurethane gel used is not critical as long a gel can be formed that can allow drug ions to migrate under an electrical potential.
The following methodology was used for the in vitro flux experiments for illustrative purposes:
Custom-built horizontal diffusion cells made in-house from DELRIN® polymeric material were used for the in vitro skin flux experiments and heat separated human epidermis was used. A consumable Ag electrode with the same polarity as the drug was adhered to one end of a DELRIN® material diffusion cell that functioned as the donor cell. […]
A Hanson Research MICROETTE™ collection system, interfaced to the experimental set up, collected the drug containing receptor solution from the reservoir underneath the skin directly into HPLC vials. […] The Hanson system collected samples to be analyzed by an HPLC to determine delivery efficiency of the drug in the formulation. […]

rise to steady state time: about 3 hours
steady state flux of apomorphine free base (37° C., until about 24 hours): about 32 μg/cm^2 hr
Structure (SMILES): CN1CCc2cccc3c2[C@H]1Cc1ccc(O)c(O)c1-3 [apomorphine]
